What follows are compounds tested against T1, HGFR (Homo sapiens, UniProt P08581) (assay: HGFR continuous-coupled spectrophotometric assay). Conditions: Table 3, column 'Ki (μM) or I (%)': cells without % sign; read-out: Ki.
T1 construct: purchased Upstate 14-526
Assay type: biochemical
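Throughout, for Met IC50: Cell-free ELISA with plate-bound poly(Glu:Tyr 4:1) phosphorylated by GST-fused Met kinase domain plus ATP and Mn2+, phosphotyrosine detected by anti-phosphotyrosine antibody with HRP and ABTS read-out.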

T1 sequence (P08581 974-1390 limits assumed): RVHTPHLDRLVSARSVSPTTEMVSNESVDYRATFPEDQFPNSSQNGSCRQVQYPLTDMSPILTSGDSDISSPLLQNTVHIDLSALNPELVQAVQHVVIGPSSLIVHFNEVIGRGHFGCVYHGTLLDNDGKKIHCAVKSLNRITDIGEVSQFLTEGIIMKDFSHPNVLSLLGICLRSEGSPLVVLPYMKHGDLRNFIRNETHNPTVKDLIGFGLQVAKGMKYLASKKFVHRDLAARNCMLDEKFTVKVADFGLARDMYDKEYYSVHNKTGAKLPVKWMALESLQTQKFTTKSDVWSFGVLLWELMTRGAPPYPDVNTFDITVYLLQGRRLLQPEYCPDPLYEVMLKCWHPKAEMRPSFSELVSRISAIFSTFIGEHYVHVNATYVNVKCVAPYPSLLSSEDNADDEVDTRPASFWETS

Ki [µM]	Compound
0.0472	(4-{6-Amino-5-[1-(2,6- dichloro-3-fluoro-phenyl)- ethoxy]-pyridin-3-yl}- phenyl)-(4-ethyl-piperizin- 1-yl)-methanone [Example I-633]

Same assay, conditions: at 1 pM; Table 6, library procedure 41; read-out: % Inhibition (percent c-MET inhibition)

inhibition at 1 pM [%]	Compound
21	CC(C)CCNC(=O)C1CC12CCN(C(=O)c1cnc(N)c(OCc3c(Cl)cccc3Cl)c1)CC2 [Example L-338]
18	CN(CCc1ccccn1)CC1(O)CCN(C(=O)c2cnc(N)c(OCc3c(Cl)cccc3Cl)c2)C1 [Example L-339]
19	Cc1cc(CCC2CC3(CCN(C(=O)c4cnc(N)c(OCc5c(Cl)cccc5Cl)c4)CC3)CO2)no1 [Example L-340]
20	Nc1ncc(C(=O)N2CCCC(N3CCC(CO)CC3)CC2)cc1OCc1c(Cl)cccc1Cl [Example L-341]
36	Nc1ncc(C(=O)N2CCCC(O)(COc3cccc(F)c3)C2)cc1OCc1c(Cl)cccc1Cl [Example L-342]
37	Nc1ncc(C(=O)N2CCC3(CC2)COC(CCc2ccnnc2)C3)cc1OCc1c(Cl)cccc1Cl [Example L-343]
41	CCc1ccc(COCC2CCN(C(=O)c3cnc(N)c(OCc4c(Cl)cccc4Cl)c3)CC2)nc1 [Example L-344]
45	Cc1ccn2cc(CNC(=O)c3cnc(N)c(OCc4c(Cl)cccc4Cl)c3)nc2n1 [Example L-345]
31	Nc1ncc(C(=O)N2CCn3c(CO)nnc3C2)cc1OCc1c(Cl)cccc1Cl [Example L-346]
38	Cc1ccc2nc(CNC(=O)c3cnc(N)c(OCc4c(Cl)cccc4Cl)c3)cn2c1 [Example L-347]
35	Nc1ncc(C(=O)N2CCC(COc3cccc4cccnc34)C2)cc1OCc1c(Cl)cccc1Cl [Example L-348]
32	Nc1ncc(C(=O)N2CCC3(CC2)CC3C(=O)NCC2CC2)cc1OCc1c(Cl)cccc1Cl [Example L-349]
34	Nc1ncc(C(=O)N2CCC3(CC2)COC(CCc2cc(O)n[nH]2)C3)cc1OCc1c(Cl)cccc1Cl [Example L-350]
35	Cn1ccnc1SCC1(O)CCCN(C(=O)c2cnc(N)c(OCc3c(Cl)cccc3Cl)c2)CC1 [Example L-351]
47	CC(C)CNC(=O)c1ccc(Cl)c(CNC(=O)c2cnc(N)c(OCc3c(Cl)cccc3Cl)c2)c1 [Example L-352]

These compounds were tested against T2, Met kinase domain (GST fusion protein) (Homo sapiens, UniProt P08581) (assay: Met transphosphorylation assay (ELISA, poly(glu-tyr) substrate)). Conditions: Table 2; read-out: Met IC50.
T2 construct: Purified GST fusion protein containing the Met kinase domain
T2 sequence (P08581 1078-1345 limits assumed): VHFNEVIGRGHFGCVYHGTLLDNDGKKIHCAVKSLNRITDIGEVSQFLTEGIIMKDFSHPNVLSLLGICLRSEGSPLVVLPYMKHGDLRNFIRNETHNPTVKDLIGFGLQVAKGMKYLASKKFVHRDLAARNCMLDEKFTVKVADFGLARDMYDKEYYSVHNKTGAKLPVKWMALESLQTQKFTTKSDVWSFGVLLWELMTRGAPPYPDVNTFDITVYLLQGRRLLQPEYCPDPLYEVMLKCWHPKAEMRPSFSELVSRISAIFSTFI
Assay type: biochemical

Compound	IC50 [µM]
CN(C)C1CCN(C(=O)c2ccc(-c3cnc(N)c(OCc4ccc(C(C)(C)C)cc4)c3)cc2)C1 (stereo in doubt) [Example I-196, {4-[6-Amino-5-(4-tert-butyl-benzyloxy)-pyridin-3-yl]-phenyl}-[(3R)-3-dimethylamino-pyrrolidin-1-yl]-methanone]	4.29

Same assay, conditions: read-out: Met IC50

IC50 [µM]	Compound
1.38	Nc1ncc(-c2cccc(NS(=O)(=O)CCN3CCCC3CO)c2)nc1OCc1c(F)ccc(F)c1Cl (stereo not drawn)
0.59	Nc1ncc(-c2cccc(OCCN3CCOCC3)c2)cc1OCc1c(Cl)cccc1Cl [Example I-3, 3-(2,6-Dichloro-benzyloxy)-5-[3-(2-morpholin-4-yl-ethoxy)-phenyl]-pyridin-2-ylamine]
1.4	Nc1ncc(-c2cccc3[nH]ccc23)cc1OCc1c(Cl)cccc1Cl [Example I-4, 3-(2,6-Dichloro-benzyloxy)-5-(1H-indol-4-yl)-pyridin-2-ylamine]
4.71	Nc1ncc(-c2cccc3[nH]ccc23)cc1OCc1c(Cl)cccc1-c1cccc2[nH]ccc12 [Example I-5, 3-[2-Chloro-6-(1H-indol-4-yl)-benzyloxy]-5-(1H-indol-4-yl)-pyridin-2-ylamine]
> 20	CC(C)(C)OC(=O)n1cccc1-c1cnc(N)c(OCc2c(Cl)cccc2Cl)c1 [Example I-6, 2-[6-Amino-5-(2,6-dichloro-benzyloxy)-pyridin-3-yl]-pyrrole-1-carboxylic acid tert-butyl ester]
4.25	Nc1ncc(-c2ccc[nH]2)cc1OCc1c(Cl)cccc1Cl [Example I-7, 3-(2,6-Dichloro-benzyloxy)-5-(1H-pyrrol-2-yl)-pyridin-2-ylamine]
6.09	Nc1ncc(-c2ccccc2F)cc1OCc1c(Cl)cccc1Cl [Example I-10, 3-(2 6-Dichloro-benzyloxy)-5-(2-fluoro-phenyl)-pyridin-2-ylamine]
0.44	CS(=O)(=O)Nc1ccc(-c2cnc(N)c(OCc3c(Cl)cccc3Cl)c2)cc1 [Example I-13, N-{4-[6-Amino-5-(2,6-dichloro-benzyloxy)-pyridin-3-yl]-phenyl}-methanesulfonamide]
> 20	CC(=O)Nc1ccc(-c2cnc(N)c(OCc3c(Cl)cccc3Cl)c2)cc1 [Example I-14, N-{4-[6-Amino-5-(2,6-dichloro-benzyloxy)-pyridin-3-yl]-phenyl}-acetamide]
1.34	Nc1ncc(-c2cccc(O)c2)cc1OCc1c(Cl)cccc1Cl [Example I-15, 3-[6-Amino-5-(2,6-dichloro-benzyloxy)-pyridin-3-yl]-phenol]
> 20	Nc1ncc(-c2cccc(OC(F)(F)F)c2)cc1OCc1c(Cl)cccc1Cl [Example I-18, 3-(2,6-Dichloro-benzyloxy)- -5-(3-trifluoromethoxy-phenyl)-pyridin-2-ylamine]
2.16	Nc1ncc(-c2ccccc2O)cc1OCc1c(Cl)cccc1Cl [Example I-19, 2-[6-Amino-5-(2,6-dichloro-benzyloxy)-pyridin-3-yl]-phenol]
14.3	Nc1ncc(-c2ccc(F)c(F)c2)cc1OCc1c(Cl)cccc1Cl [Example I-21, 3-(2,6-Dichloro-benzyloxy)-5-(3,4-difluoro-phenyl)-pyridin-2-ylamine]
> 20	Nc1ncc(-c2ccccc2C(F)(F)F)cc1OCc1c(Cl)cccc1Cl [Example I-23, 3-(2,6-Dichloro-benzyloxy)-5-(2-trifluoromethyl-phenyl)-pyridin-2-ylamine]
> 20	Nc1ncc(-c2ccc(C(F)(F)F)cc2)cc1OCc1c(Cl)cccc1Cl [Example I-25]

Compound	IC50 [µM]
Nc1ncc(-c2ccc(F)cc2)cc1OCc1c(Cl)cccc1Cl [Example I-8, 3-(2,6-Dichloro-benzyloxy)-5-(4-fluoro-phenyl)-pyridin-2-ylamine]	8.01
Nc1ncc(-c2cccc(F)c2)cc1OCc1c(Cl)cccc1Cl [Example I-11, 3-(2,6-Dichloro-benzyloxy)-5-(3-fluoro-phenyl)-pyridin-2-ylamine]	13.8
Nc1ccc(-c2cnc(N)c(OCc3c(Cl)cccc3Cl)c2)cc1 [Example I-12, 5-(4-Amino-phenyl)-3-(2,6-dichloro-benzyloxy)-pyridin-2-ylamine]	0.606
COc1ccc(-c2cnc(N)c(OCc3c(Cl)cccc3Cl)c2)cc1 [Example I-16, 3-(2,6-Dichloro-benzyloxy)-5-(4-methoxy-phenyl)-pyridin-2-ylamine]	6.55
Nc1ncc(-c2ccccc2Oc2ccccc2)cc1OCc1c(Cl)cccc1Cl [Example I-20, 3-(2,6-Dichloro-benzyloxy)-5-(2-phenoxy-phenyl)-pyridin-2-ylamine]	> 20
CC(C)c1cccc(-c2cnc(N)c(OCc3c(Cl)cccc3Cl)c2)c1 [Example I-22, 3-(2,6-Dichloro-benzyloxy)-5-(3-isopropyl-phenyl)-pyridin-2-ylamine]	15.9
COc1ccccc1-c1cnc(N)c(OCc2c(Cl)cccc2Cl)c1 [Example I-24, 3-(2,6-Dichloro-benzyloxy)-5-(2-methoxy-phenyl)-pyridin-2-ylamine]	11.5

From patent publication US20050009840A1 (SUGEN, INC., priority 2003, published 2005)
